Values belong to the compound of their own block, whether it stands above or below them.
Legend:
[1] = Reactivity: air oxidation, chemiluminometric determination of N-nitroso derivatives; type: physicochemical; conditions: 2 mM aqueous solution diluted with water/ethanol (85/15), exposed to ambient air 72 h
Excerpt: The properties of 1,4-butanediamine,N-(3-aminopropyl)-N^1-methyl (II) and 1,4-butanediamine,N-(3-aminopropyl)-N^1-cyclohexyl (III) after exposure to air were studied by comparison with the corresponding non-substituted derivative, in which the N^1 amine group lacking the R substituent becomes a secondary amine group, namely 1,4-butanediamine,N-(3-aminopropyl). Since one of the common products of oxidation of the secondary amino group takes the form of the N-nitroso derivatives which are formed by reaction with the nitrogen oxides present in the air, the nitrosated derivatives which were formed upon leaving a solution of the test compounds in contact with the ambient air were determined as a parameter of reactivity.
The instrumentation used consisted of a stage on which both the analysis of the nitrite ions and the analysis of the N-nitrosamines were carried out, the latter under strong denitrosating conditions. The nitrogen oxide which developed in accordance with the amount of nitrite ions and that which developed in accordance with the quantity of nitroso groups were evaluated by way of a chemiluminometric detector.
The content of NO^2− ions was analysed using a reducing mixture of acetic acid/potassium iodide (5 ml/1 ml of 5% H2O soln.) at a temperature of 0-4° C. The nitroso groups were analysed using a denitrosating mixture of acetic acid/hydrobromic acid (5 ml/1 ml) at a temperature of 70° C.
The method for determining air oxidation of the compound was as follows.
a) a 2 mM solution of the test substance in purified water was doubly seeded, at an amount equal to 500 μl in appropriate wells of six-well plates of inert plastics material (polystyrene);
b) the solution in each well was diluted with 500 μl of a mixture of purified water and ethanol (85/15) free from contamination. This promotes the dispersion of the liquid film on the surface of the well;
c) the plate prepared in this manner is exposed to ambient air for 72 h
d) at the end of the exposure time, the residue in the well is eluted with 1 ml of purified water and then used for the chemiluminometric analysis.

NCTC2544 cells = test: Antioxidant test: production of reactive oxygen species (ROS), DCFH-DA spectrofluorometry; type: cell-based, human; conditions: for Concentration of ROS products compared to control cells treated with H2O2: 1.5 h, α-tocopherol 250 μg/ml, spermidine and N-methylspermidine 1 nM-1 mM
Procedure: The production of reactive oxygen species (ROS) was monitored by spectrofluorometry using 2′,7′-dichlorofluorescein diacetate (DCFH-DA) as described by Tobi et al. (Tobi S E, Paul N, T McMillan J. J Photochem. Photobiol, B 2000: 57: 102-112).
The aforementioned NCTC2544 cells (˜80% confluence) were detached with trypsin/EDTA and seeded at a density of 5×10^4 cells per well, in 96-well plates. Subsequently, the cells were treated with the N-methylspermidine according to the invention and spermidine. The following concentrations of N-methylspermidine and spermidine were tested: 1 nM, 500 nM, 1 μM, 500 μM, 1 mM (final concentration in the culture medium).
α-tocopherol (250 μg/ml) was used as a comparison. The plates were incubated at 37° C., in 5% CO2, for 1.5 h. The cells grown on basal medium with 10% FBS were used as a control.

[2] = test system: hair follicles (HF) in anagen VI phase from human scalp skin; test: Hair shaft elongation test, ex vivo organ culture of hair follicles; type: cell-based; conditions: 0.5 μM, day 6; for Elongation of the hair shaft with respect to the vehicle: every 48 hours
Procedure: The activity of N-methylspermidine was tested in an ex vivo model which made it possible to measure the effect on the elongation of the hair shaft. The organ culture of hair follicles (HF) in anagen VI phase involved microdissection of HF from the skin of the human scalp (temporo-frontal area) after informed consent from the subjects who were undergoing surgery (face lifts), in accordance with the Helsinki Declaration and with the approval of the Ethics Committee of the University of Lübeck. […] For immunohistochemical studies, the isolated follicles were cultured for 6 consecutive days. Spermidine, N-methylspermidine and the vehicle (distilled water) were administered once for each change of culture medium (every 48 hours), at a concentration of 0.5 μM. The measurements of the shaft elongation after the treatment with vehicle, spermidine and N-methylspermidine were taken on days 0, 1, 4 and 6, using a Zeiss inverted binocular microscope with one eyepiece containing a reticle (Carl Zeiss, Oberkochen, Germany).

[3] = test system: hair follicles (HF) in anagen VI phase from human scalp skin; test: Anagen and catagen phases in the ex vivo hair follicle model; type: cell-based
Procedure: The organ culture of hair follicles (HF) in anagen VI phase involved microdissection of HF from the skin of the human scalp (temporo-frontal area) after informed consent from the subjects who were undergoing surgery (face lifts), in accordance with the Helsinki Declaration and with the approval of the Ethics Committee of the University of Lübeck. […] For immunohistochemical studies, the isolated follicles were cultured for 6 consecutive days. Spermidine, N-methylspermidine and the vehicle (distilled water) were administered once for each change of culture medium (every 48 hours), at a concentration of 0.5 μM. The following results for the anagen and catagen phases, summarised in the graphs of FIGS. 5 and 6, were also obtained from the same ex vivo model of hair follicles (HF) described for the previous test of elongation of the hair shaft.

[4] = test system: NCTC2544 human keratinocytes; test: MTT Assay (cell viability / cytotoxicity); type: cell-based; conditions: 1 nM, 500 nM, 24 or 48 hours exposure
Excerpt: MTT Assay is a test used for analysing cell viability (Mosmann, 1983). It is a colorimetric test based on the use of the tetrazolium salt MTT, which measures cell viability which can then be quantified by a microplate spectrophotometric reader. MTT (3-(4,5-dimethylthiazol-2-yl)-2,5-diphenyltetrazolium bromide, a tetrazole), a yellow compound, is reduced to formazan, a purple substance, in cellular mitochondria. The absorbance of this coloured solution can be quantified by measuring it at a given wavelength (570 nm) using a spectrophotometer. The maximum absorbance will depend on the solvent used. This reduction only takes place when the mitochondrial reductase enzymes are active, and the conversion to formazan can therefore be related directly to the number of viable cells. When the amount of formazan produced by cells treated with a substance is compared with the amount produced by untreated control cells, it is possible to deduce the efficacy of the tested substance in causing cell death by producing a dose-response curve. The solutions of MTT solubilised in PBS or cell culture medium, without phenol red, are of a yellowish colour. […] The resulting purple solution is analysed by spectrophotometry. An increase in the number of cells will result in an increase in the formazan obtained and in an increase in absorbance. […]

Nitroso derivatives after 72 h exposure [1]: absent
SMILES: NCCCCN(CCCN)C1CCCCC1 [N-(3-aminopropyl)-N^1-cyclohexyl-1,4-butanediamine]

Nitroso derivatives after 72 h exposure [1]: absent
SMILES: CNCCCCNCCCN [N-methylspermidine, N-(3-aminopropyl)-N′-methyl-1,4-butanediamine]
Concentration of ROS products compared to control cells treated with H2O2 (NCTC2544 cells): decrease in the concentration of ROS products
Antioxidant activity compared with that of spermidine (NCTC2544 cells; comparison with spermidine): no significant difference
Elongation of the hair shaft with respect to the vehicle [2]: improve the elongation of the hair shaft significantly
Difference in hair shaft elongation between spermidine and N-methylspermidine [2]: not statistically significant
Effect of prolonging the anagen phase, compared with spermidine ([3]; 0.5 μM each, 6 days): greater effect of prolonging the anagen phase
Number of hairs entering the catagen phase, compared with spermidine ([3]; 0.5 μM each, 6 days): significantly lower
Follicles entering catagen spontaneously ([3]; 0.5 μM, after 6 days of treatment, vehicle more than 60%): ~30%
Percentage of hair follicles in the anagen phase ([3]; 0.5 μM, after 6 days of treatment, versus vehicle): significant increase

SMILES: NCCCCNCCCN [spermidine, N′-(3-aminopropyl)-1,4-diaminobutane, reference compound]
Cytotoxic effects / cell viability in percent against the control [4]: no cytotoxic effects
Concentration of ROS products compared to control cells treated with H2O2 (NCTC2544 cells): decrease in the concentration of ROS products
Elongation of the hair shaft with respect to the vehicle [2]: improve the elongation of the hair shaft significantly
Nitroso derivatives after 72 h exposure [1]: 2.3 ppm

SMILES: Cc1c(C)c2c(c(C)c1O)CC[C@@](C)(CCC[C@H](C)CCC[C@H](C)CCCC(C)C)O2 [α-tocopherol, reference compound]
Concentration of ROS products compared to control cells treated with H2O2 (NCTC2544 cells): decrease in the concentration of ROS products

Reference: patent US9241888B2, “Pharmaceutical or cosmetic composition for treating alopecia” (GIULIANI S.P.A., priority 2012, dated 2016)
